Source: patent publication US12559529B2, “NPY2 receptor agonists” (Boehringer Ingelheim International GmbH, priority 2019, dated 2026)
*1 amine or outer side, *2 acyl side, *3 side chain or, on linkers, in order; H or OH if unused. Where a SMILES comes first, the peptide text is derived from it. Side-chain parts run from the residue outwards. The star is where a group is joined. C18 diacid = O=C(O)CCCCCCCCCCCCCCCCC(=O)*; γGlu = O=C(O)[C@H](CCC(=O)[*:2])N[*:1]; Isovaleryl = CC(C)CC(=O)*; AEEA = NCCOCCOCC(=O)O

Target: T1, Human Neuropeptide Y2 Receptor (Homo sapiens, UniProt P49146)
T1 construct: purchased CHEMICON HTS066M
T1 sequence (P49146 1-381): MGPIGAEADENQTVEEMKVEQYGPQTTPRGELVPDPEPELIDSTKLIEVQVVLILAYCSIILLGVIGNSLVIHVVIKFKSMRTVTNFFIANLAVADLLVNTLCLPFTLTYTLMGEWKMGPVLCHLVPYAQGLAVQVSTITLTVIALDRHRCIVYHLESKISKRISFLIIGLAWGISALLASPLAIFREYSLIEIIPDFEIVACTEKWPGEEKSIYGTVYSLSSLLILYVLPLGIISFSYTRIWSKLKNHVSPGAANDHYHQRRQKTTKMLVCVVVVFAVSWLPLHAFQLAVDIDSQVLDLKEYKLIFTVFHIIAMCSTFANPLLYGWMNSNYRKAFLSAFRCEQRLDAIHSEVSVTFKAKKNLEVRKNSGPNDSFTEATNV
Assay: Radioligand binding competition assay (RLB)
Conditions: Table 3; human 125I-PYY (1-36) 0.02 nM, Y2 receptor membranes; read-out: Ki
Method: The filtration RLB assay was carried out in 96-well plates in a final volume of 100 μl per well. Freeze-dried test peptides were dissolved in 100% dimethyl sulfoxide (DMSO) to stock solutions of 1 mM and serial dilutions were performed in assay buffer (50 mM HEPES, 5 mM MgCl2, 1 mM CaCl2), pH 7.4) containing 0.2% ovalbumin. […] Next, 80 μL membranes (HTS066M, ChemiSCREEN™ Human Neuropeptide Y2 Receptor Membrane Preparation, CHEMICON) were added to each well to give a final protein concentration of 0.5 μg/well. The plates were sealed and incubated at room temperature for 2 hours in a plate shaker set at 400 rpm. The incubation was stopped by vacuum filtration onto 0.5% poly-ethylene amine (PEI) presoaked GF/C filters using a 96-well FilterMate™ harvester (Perkin Elmer) followed by four washes with 300 μl/well ice-cold wash buffer (50 mM HEPES, 500 mM NaCl, pH7.4). Filter plates were then dried for 60 min at room temperature and the bottom of the plates was sealed with backing tape UniFilter-96. Finally, 50 μl/well scintillation counter cocktail (Microscint20, Packard) was added and the radioactivity was counted in the Packard TopCount NXT scintillation counter. IC50 values (the half maximal inhibitory concentration of the agonist) were calculated by nonlinear regression analysis of sigmoidal dose-response curves.

| Ki | SMILES |
| --- | --- |
| 0.93 nM | CC(C)CC(=O)N[C@@H](C)C(=O)N1CCC[C@H]1C(=O)N[C@@H](CCC(=O)O)C(=O)N[C@@H](CCCCNC(=O)COCCOCCNC(=O)COCCOCCNC(=O)CC[C@H](NC(=O)CCCCCCCCCCCCCCCCC(=O)O)C(=O)O)C(=O)N1CCC[C@H]1C(=O)N[C@@H](CCC(=O)O)C(=O)N[C@@H](CCC(=O)O)C(=O)N[C@@H](CC(=O)O)C(=O)N[C@@H](C)C(=O)N[C@@H](CO)C(=O)N1CCC[C@H]1C(=O)N[C@@H](C)C(=O)N[C@@H](CCC(=O)O)C(=O)N[C@@H](CC(C)C)C(=O)N[C@@H](CCC(N)=O)C(=O)N[C@@H](CCCNC(=N)N)C(=O)N[C@@H](Cc1ccc(O)cc1)C(=O)N[C@@H](Cc1ccc(O)cc1)C(=O)N[C@H](C(=O)N[C@@H](CO)C(=O)N[C@@H](CC(C)C)C(=O)N[C@@H](CCCNC(=N)N)C(=O)N[C@@H](Cc1c[nH]cn1)C(=O)N[C@@H](Cc1ccc(O)cc1)C(=O)N[C@@H](Cc1ccc(O)cc1)C(=O)N[C@@H](CC(N)=O)C(=O)N[C@@H](Cc1c[nH]c2ccccc12)C(=O)N[C@@H](CC(C)C)C(=O)N[C@H](C(=O)N[C@@H](CCCNC(=N)N)C(=O)N[C@@H](CCC(N)=O)C(=O)N[C@@H](CCCNC(=N)N)C(=O)N[C@@H](Cc1ccc(O)cc1)C(N)=O)[C@@H](C)O)C(C)C [Compound 17, N{alpha-4}-(3-methylbutanoyl)-N{epsilon-7}-[2-(2-{2-[2-(2-{2-[(4S)-4-carboxy-4-(17-carboxyheptadecanamido)butanamido]ethoxy}ethoxy)acetamido]ethoxy}ethoxy)acetamido]-[4A,7K,9E,15A,18Q,22V,28Y,30W,31L]hPYY (4-36)] |
| 0.39 nM | CC(C)CC(=O)N[C@@H](C)C(=O)N1CCC[C@H]1C(=O)N[C@@H](CCC(=O)O)C(=O)N[C@@H](CCCCNC(=O)COCCOCCNC(=O)COCCOCCNC(=O)CC[C@H](NC(=O)CCCCCCCCCCCCCCCCC(=O)O)C(=O)O)C(=O)N1CCC[C@H]1C(=O)N[C@@H](CCC(=O)O)C(=O)N[C@@H](C)C(=O)N[C@@H](CC(=O)O)C(=O)N[C@@H](C)C(=O)N[C@@H](CO)C(=O)N1CCC[C@H]1C(=O)N[C@@H](CCC(=O)O)C(=O)N[C@@H](CCC(=O)O)C(=O)N[C@@H](CC(C)C)C(=O)N[C@@H](CCC(N)=O)C(=O)N[C@@H](CCC(N)=O)C(=O)N[C@@H](Cc1ccc(O)cc1)C(=O)N[C@@H](Cc1ccc(O)cc1)C(=O)N[C@H](C(=O)N[C@@H](CO)C(=O)N[C@@H](CC(C)C)C(=O)N[C@@H](CCCNC(=N)N)C(=O)N[C@@H](Cc1c[nH]cn1)C(=O)N[C@@H](Cc1ccc(O)cc1)C(=O)N[C@@H](Cc1ccc(O)cc1)C(=O)N[C@@H](CC(N)=O)C(=O)N[C@@H](Cc1c[nH]c2ccccc12)C(=O)N[C@@H](CC(C)C)C(=O)N[C@H](C(=O)N[C@@H](CCCNC(=N)N)C(=O)N[C@@H](CCC(N)=O)C(=O)N[C@@H](CCCNC(=N)N)C(=O)N[C@@H](Cc1ccc(O)cc1)C(N)=O)[C@@H](C)O)C(C)C [Compound 19, N{alpha-4}-(3-methylbutanoyl)-N{epsilon-7}-[2-(2-{2-[2-(2-{2-[(4S)-4-carboxy-4-(17-carboxyheptadecanamido)butanamido]ethoxy}ethoxy)acetamido]ethoxy}ethoxy)acetamido]-[4A,7K,9E,10A,18Q,19Q,22V,28Y,30W,31L]hPYY (4-36)] (Isovaleryl-APEK([AEEA-AEEA-γGlu-C18 diacid])PEADASPEELQQYYVSLRHYYNWLTRQRY-NH2) |
| 2.57 nM | CC(C)CC(=O)N[C@@H](C)C(=O)N1CCC[C@H]1C(=O)N[C@@H](CCC(=O)O)C(=O)N[C@@H](CCCCNC(=O)COCCOCCNC(=O)COCCOCCNC(=O)CC[C@H](NC(=O)CCCCCCCCCCCCCCCCC(=O)O)C(=O)O)C(=O)N1CCC[C@H]1C(=O)N[C@@H](CCC(=O)O)C(=O)N[C@@H](CCC(=O)O)C(=O)N[C@@H](CC(=O)O)C(=O)N[C@@H](C)C(=O)N[C@@H](C)C(=O)N1CCC[C@H]1C(=O)N[C@@H](CCC(=O)O)C(=O)N[C@@H](CCC(=O)O)C(=O)N[C@@H](CC(C)C)C(=O)N[C@@H](CCC(N)=O)C(=O)N[C@@H](CCCNC(=N)N)C(=O)N[C@@H](Cc1ccc(O)cc1)C(=O)N[C@@H](Cc1ccc(O)cc1)C(=O)N[C@H](C(=O)N[C@@H](CCC(=O)O)C(=O)N[C@@H](CC(C)C)C(=O)N[C@@H](CCCNC(=N)N)C(=O)N[C@@H](Cc1c[nH]cn1)C(=O)N[C@@H](Cc1ccc(O)cc1)C(=O)N[C@@H](Cc1ccc(O)cc1)C(=O)N[C@@H](CC(N)=O)C(=O)N[C@@H](Cc1c[nH]c2ccccc12)C(=O)N[C@@H](CC(C)C)C(=O)N[C@H](C(=O)N[C@@H](CCCNC(=N)N)C(=O)N[C@@H](CCC(N)=O)C(=O)N[C@@H](CCCNC(=N)N)C(=O)N[C@@H](Cc1ccc(O)cc1)C(N)=O)[C@@H](C)O)C(C)C [Compound 20, N{alpha-4}-(3-methylbutanoyl)-N{epsilon-7}-[2-(2-{2-[2-(2-{2-[(4S)-4-carboxy-4-(17-carboxyheptadecanamido)butanamido]ethoxy}ethoxy)acetamido]ethoxy}ethoxy)acetamido]-[4A,7K,9E,13A,18Q,22V,23E,28Y,30W,31L]hPYY (4-36)] |
| 2.22 nM | CC(C)CC(=O)N[C@@H](C)C(=O)N1CCC[C@H]1C(=O)N[C@@H](CCC(=O)O)C(=O)N[C@@H](CCCCNC(=O)COCCOCCNC(=O)COCCOCCNC(=O)CC[C@H](NC(=O)CCCCCCCCCCCCCCCCC(=O)O)C(=O)O)C(=O)N1CCC[C@H]1C(=O)N[C@@H](CCC(=O)O)C(=O)N[C@@H](CCC(=O)O)C(=O)N[C@@H](CC(=O)O)C(=O)N[C@@H](C)C(=O)N[C@@H](CO)C(=O)N1CCC[C@H]1C(=O)N[C@@H](CCC(=O)O)C(=O)N[C@@H](CCC(=O)O)C(=O)N[C@@H](CC(C)C)C(=O)N[C@@H](CCC(N)=O)C(=O)N[C@@H](CCCNC(=N)N)C(=O)N[C@@H](Cc1ccc(O)cc1)C(=O)N[C@@H](Cc1ccc(O)cc1)C(=O)N[C@H](C(=O)N[C@@H](CO)C(=O)N[C@@H](CC(C)C)C(=O)N[C@@H](CCCNC(=N)N)C(=O)N[C@@H](CCCCN)C(=O)N[C@@H](Cc1ccc(O)cc1)C(=O)N[C@@H](Cc1ccc(O)cc1)C(=O)N[C@@H](CC(N)=O)C(=O)N[C@@H](Cc1c[nH]c2ccccc12)C(=O)N[C@@H](CC(C)C)C(=O)N[C@H](C(=O)N[C@@H](CCCNC(=N)N)C(=O)N[C@@H](CCC(N)=O)C(=O)N[C@@H](CCCNC(=N)N)C(=O)N[C@@H](Cc1ccc(O)cc1)C(N)=O)[C@@H](C)O)C(C)C [Compound 24, N{alpha-4}-(3-methylbutanoyl)-N{epsilon-7}-[2-(2-{2-[2-(2-{2-[(4S)-4-carboxy-4-(17-carboxyheptadecanamido)butanamido]ethoxy}ethoxy)acetamido]ethoxy}ethoxy)acetamido]-[4A,7K,9E,18Q,22V,26K,28Y,30W,31L]hPYY (4-36)] |
